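Assay format: 96-well plates, 48-hour exposure. TGI is the concentration that stops growth completely.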

Here are results for six compounds from PubChem BioAssay (NCI).

Some test systems named below: DMS 114 small cell lung; KM20L2 colon; M19-MEL melanoma; MCF7 breast; P388 leukemia; P388/ADR leukemia; SN12K1 renal; BT-549 breast; HS 578T breast; LXFL 529 NSCLC; 786-0 renal.
Common to all, as to assay: NCI tumour cell line growth inhibition, 48 h

With `COc1cc(N=Nc2cccc(S(=O)(=O)O)c2)ccc1N=Nc1ccc(/C=C/c2ccc(-n3on3-c3ccc(/C=C/c4ccc(N=Nc5ccc(N=Nc6cccc(S(=O)(=O)O)c6)cc5OC)cc4S(=O)(=O)O)c(S(=O)(=O)O)c3)cc2S(=O)(=O)O)c(S(=O)(=O)O)c1`, the TGI in the experiment with DMS 114 small cell lung, in the experiment on KM20L2 colon, in the experiment with M19-MEL melanoma, with MCF7 breast, with P388 leukemia and in the experiment with P388/ADR leukemia was above 100 µM each time. In addition, the TGI in the experiment with SN12K1 renal was above 100 µM.
`CCOP(=O)(COCCn1ncc(=O)[nH]c1=O)OCC`: the TGI in the experiment on BT-549 breast, in the experiment on HS 578T breast and in the experiment on MCF7 breast was above 100 µM throughout.
Turning to `O=C1NP23(OCCO2)Oc2ccccc2C3(C(F)(F)F)O1` (configuration not stated), the TGI in the experiment on DMS 114 small cell lung, in the experiment with LXFL 529 NSCLC and in the experiment with M19-MEL melanoma was above 100 µM in each case.
With `O=C(O)C1C2C=CC(C2)C1c1ccccc1` (configuration not stated), the TGI in the experiment on 786-0 renal, with HS 578T breast and with MCF7 breast was above 100 µM each time.
Take `CC(=O)O/C(=C1\C[C@H]2[C@@H]3CC=C4C[C@@H](OC(C)=O)CC[C@]4(C)[C@H]3CC[C@]2(C)C1=O)C(F)(F)F`: the TGI in the experiment on 786-0 renal was determined as 20.6 µM; in the experiment on BT-549 breast it was 34.7 µM; in the experiment with HS 578T breast it was 20.8 µM; in the experiment with MCF7 breast it was 17.8 µM.
As for `N#CC(OC1OC(COC2OC(CO)C(O)C(O)C2O)C(O)C(O)C1O)c1ccccc1` (configuration not stated), the TGI in the experiment on DMS 114 small cell lung, with KM20L2 colon, with M19-MEL melanoma, in the experiment on MCF7 breast, with P388 leukemia and in the experiment with P388/ADR leukemia was above 225 µM each time. This compound yielded a TGI in the experiment with SN12K1 renal above 225 µM.
